The subject of this assay is M2R melanoma cells. The assay is described as follows: Photodynamic activity in monolayer cell culture (phototoxicity to melanoma cells). The note with it: mouse M2R melanoma cells, 4 hrs dark incubation, irradiation 600–1300 nm; for phototoxicity to M2R melanoma cells (result in words): viability by [3H]-thymidine incorporation, formed aggregates in the liposomes. In kind it is cell-based. Here is the method: Liposome Preparation L-α-Dipalmitoylphosphatidylcholine (DPPC) liposomes as carrier system for pigments insoluble in water were prepared according to Toledano, 1998 and to Cuomo et al. 1990. […] (≅130 μg) of the photosensitizer and 5 mg DPPC were dissolved in 400 μl chloroform. Onto this were layered 250 μl H2O and 250 μl phosphate buffer (pH=7,2; 1,5 mM KH2PO4; 7,6 mM Na2HPO4; 0,15 M NaCl). The chloroform was removed within 5 min with a rapid stream of argon, while the mixture was sonicated and maintained at 45° C. Sonication was continued for another 20 min and the liposomes loaded with pigment were recovered in the supernatant after centrifugation (16 000×g, 10 min). The liposome concentration was determined photometrically at 750 nm (according to Grossweiner and Grossweiner, 1982). Photodynamic Activity in Monolayer Cell Culture M2R melanoma cells (mice) were cultivated as monolayers in 96-well microtiter-plates in DMEM (Dulbecco's modified Eagle's medium)/F12 1/1 (v/v) at 37° C. in a moist atmosphere containing 8% CO2. The medium (pH 7.4) was supplemented with HEPES buffer (25 mM), fetal-bovine-serum (FBS) (10%), glutamine (2 mM), penicillin (0.06 mg/ml) and streptomycin (0.1 mg/ml). Within 24 hrs, the cell density increased from 1×10^4 to 2×10^4 cell/100 μl. Increasing amounts of the liposome preparation containing the BChl-derivative were added to the cells. (Pd-BPheid-ser or Pd-BPheid-Nglc were added as ethanolic solution (10^−4 M) such that the maximum concentration of ethanol was <1%). The cells were first kept in the dark for 4 hrs, washed with 100 μl of the medium, treated with 100 μl of fresh medium, and then irradiated from below through the bottom of the plates with a russian BS LS3-PDT lamp, fitted with a filter (600–1300 nm). A light-dose of 10 mW x s x cm^−2 was provided during an irradiation time of […]. After an additional 24 h in the dark at 37° C., cell viability was determined by microscopic inspection (cell size and shape) and via [^3H]-thymidine incorporation into the DNA (Chen et al. 1988). […]
In general terms: Incorporation of labelled thymidine or its analogues reports DNA synthesis.

Turning to “13^3-tert.-butyl-benzyl-Pd-bacteriopheophorbide-a-17^3-tert-butyl-benzyl ester [tbb-Pd-BPheid-tbb]”, the “phototoxicity to M2R melanoma cells (result in words)” value is “ineffective”. Same read-out and setting: the same measure for “Pd-bacteriopheophorbide a-17^3-N-glucosamide [Pd-BPheid-Nglc]”: “ineffective”. In the case of “13^3-tert-butyl-benzyl-Pd-bacteriopheophorbide-a-17^3-methyl ester [tbb-Pd-Bpheid-me]”, where the note is “viability by [3H]-thymidine incorporation after 24 h, sensitizers in DPPC liposomes (Pd-BPheid-ser as ethanolic solution)”, the “LD90 (phototoxicity)” value was 1.1 µM.

The values above are taken from patent publication US7169753B2, “Chlorophyll and bacteriochlorophyll esters, their preparation and pharmaceutical compositions comprising them” (Yeda Research and Development Co. Ltd., priority 1999, dated 2007).
